The record followed here is patent US11759462B2, “Spirocyclic compounds as tryptophan hydroxylase inhibitors” (priority 2013, dated 2023).

SMILES strings stand for the structures. Read-outs that look alike come from different tables or passages of the source.

As usually defined, the IC50 is the concentration that gives 50% inhibition.

In this experiment the target is T1, Recombinant human TPH1 (MBP tagged) (Homo sapiens, UniProt P17752).
T1 construct: cloning full length human TPH1 cDNA in to a bacterial pMAL-c5E expression vector; made in house; host or cells: E. coli BL21 (DE3)
T1 sequence (P17752 1-444): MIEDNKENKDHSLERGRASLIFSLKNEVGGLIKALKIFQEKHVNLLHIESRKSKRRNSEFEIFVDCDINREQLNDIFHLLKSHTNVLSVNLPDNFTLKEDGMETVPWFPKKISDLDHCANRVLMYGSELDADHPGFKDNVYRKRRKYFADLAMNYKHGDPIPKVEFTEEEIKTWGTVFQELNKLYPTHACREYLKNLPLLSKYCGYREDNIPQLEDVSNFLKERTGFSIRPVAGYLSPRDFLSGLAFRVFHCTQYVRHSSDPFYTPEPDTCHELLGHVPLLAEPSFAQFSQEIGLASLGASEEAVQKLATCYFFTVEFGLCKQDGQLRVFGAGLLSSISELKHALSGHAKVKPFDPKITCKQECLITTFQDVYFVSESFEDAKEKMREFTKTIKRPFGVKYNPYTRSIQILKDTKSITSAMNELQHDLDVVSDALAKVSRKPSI
As to the kind of experiment: TPH1 in vitro inhibition assay (kinetic fluorescence). Format: biochemical. In outline: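 Final mix: 15 nM MBP-TPH1, 30 μM Trp, 36 μM 6-methyltetrahydropterin, 25 μM ferrous ammonium sulfate, 50 mM MES pH 7.1, 1% DMSO, room temperature.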

Setting [1] is: TPH1 Range (TPH1 inhibition IC50).
Where [2] appears, read: read-out: TPH1 Range (TPH1 inhibition IC50).

In the case of `CS(=O)(=O)Nc1cccc(-c2cc(Cl)ccc2[C@@H](Oc2cc(N3CCC4(CC3)CN[C@H](C(=O)O)C4)nc(N)n2)C(F)(F)F)c1` [Example 34n, (S)-8-(2-amino-6-((R)-1-(5-chloro-3′-(methylsulfonamido)-[1,1′-biphenyl]-2-yl)-2,2,2-trifluoroethoxy)pyrimidin-4-yl)-2,8-diazaspiro[4.5]decane-3-carboxylic acid], the IC50 under setting [1] is 50 to 300 nM.

Regarding `Nc1nc(O[C@H](c2ccc(Cl)cc2-c2cccc(N3CCCC3=O)c2)C(F)(F)F)cc(N2CCC3(CC2)CN[C@H](C(=O)O)C3)n1` [Example 34o, (S)-8-(2-amino-6-((R)-1-(5-chloro-3′-(2-oxopyrrolidin-1-yl)-[1,1′-biphenyl]-2-yl)-2,2,2-trifluoroethoxy)pyrimidin-4-yl)-2,8-diazaspiro[4.5]decane-3-carboxylic acid], under setting [1], the IC50 fell in the range of 50 to 300 nM.

Regarding `CN1CCN(c2cccc(-c3cc(Cl)ccc3[C@@H](Oc3cc(N4CCC5(CC4)CN[C@H](C(=O)O)C5)nc(N)n3)C(F)(F)F)c2)C1=O` [Example 34p, (S)-8-(2-amino-6-((R)-1-(5-chloro-3′-(3-methyl-2-oxoimidazolidin-1-yl)-[1,1′-biphenyl]-2-yl)-2,2,2-trifluoroethoxy)pyrimidin-4-yl)-2,8-diazaspiro[4.5]decane-3-carboxylic acid], the IC50 under setting [2] was in the range of 50 to 300 nM.

`Nc1nc(O[C@H](c2ccc(Cl)cc2-c2cccc(C(F)(F)F)c2)C(F)(F)F)cc(N2CCC3(CC2)CN[C@H](C(=O)O)C3)n1` [Example 34q, (S)-8-(2-amino-6-((R)-1-(5-chloro-3′-(trifluoromethyl)-[1,1′-biphenyl]-2-yl)-2,2,2-trifluoroethoxy)pyrimidin-4-yl)-2,8-diazaspiro[4.5]decane-3-carboxylic acid]: under setting [1], the IC50 is under 50 nM.

Take `Cn1ccc(-c2cc(Cl)ccc2[C@@H](Oc2cc(N3CCC4(CC3)CN[C@H](C(=O)O)C4)nc(N)n2)C(F)(F)F)n1` [Example 34t, (S)-8-(2-amino-6-((R)-1-(4-chloro-2-(1-methyl-1H-pyrazol-3-yl)phenyl)-2,2,2-trifluoroethoxy)pyrimidin-4-yl)-2,8-diazaspiro[4.5]decane-3-carboxylic acid]: the IC50 under setting [2] is 50 to 300 nM.

As for `N#Cc1cccc(-c2cc(Cl)ccc2[C@@H](Oc2cc(N3CCC4(CC3)CN[C@H](C(=O)O)C4)nc(N)n2)C(F)(F)F)c1` [Example 34x, (S)-8-(2-amino-6-((R)-1-(5-chloro-3′-cyano-[1,1′-biphenyl]-2-yl)-2,2,2-trifluoroethoxy)pyrimidin-4-yl)-2,8-diazaspiro[4.5]decane-3-carboxylic acid], the IC50 under setting [1] is under 50 nM.

Consider `COc1cccc(-c2cc(Cl)ccc2[C@@H](Oc2cc(N3CCC4(CC3)CN[C@H](C(=O)O)C4)nc(N)n2)C(F)(F)F)c1` [Example 34y, (S)-8-(2-amino-6-((R)-1-(5-chloro-3′-methoxy-[1,1′-biphenyl]-2-yl)-2,2,2-trifluoroethoxy)pyrimidin-4-yl)-2,8-diazaspiro[4.5]decane-3-carboxylic acid], for which, under setting [1], the IC50 is under 50 nM.

As to `NCc1cccc(-c2cc(Cl)ccc2[C@@H](Oc2cc(N3CCC4(CC3)CN[C@H](C(=O)O)C4)nc(N)n2)C(F)(F)F)c1` [Example 34z, (S)-8-(2-amino-6-((R)-1-(3′-(aminomethyl)-5-chloro-[1,1′-biphenyl]-2-yl)-2,2,2-trifluoroethoxy)pyrimidin-4-yl)-2,8-diazaspiro[4.5]decane-3-carboxylic acid], the IC50 under setting [2] was under 50 nM.

As to `CCOC(=O)c1cccc(-c2cc(Cl)ccc2[C@@H](Oc2cc(N3CCC4(CC3)CN[C@H](C(=O)O)C4)nc(N)n2)C(F)(F)F)c1` [Example 35, (S)-8-(2-amino-6-((R)-1-(5-chloro-3′-(ethoxycarbonyl)-[1,1′-biphenyl]-2-yl)-2,2,2-trifluoroethoxy)pyrimidin-4-yl)-2,8-diazaspiro[4.5]decane-3-carboxylic acid], under setting [2], the IC50 fell in the range of 50 to 300 nM.

As to `COCCOc1cc(Cl)ccc1[C@@H](Oc1cc(N2CCC3(CC2)CN[C@H](C(=O)O)C3)nc(N)n1)C(F)(F)F` [Example 36, (S)-8-(2-amino-6-((R)-1-(4-chloro-2-(2-methoxyethoxy)phenyl)-2,2,2-trifluoroethoxy)pyrimidin-4-yl)-2,8-diazaspiro[4.5]decane-3-carboxylic acid], under setting [2], the IC50 lay in the range of 3000 to 10000 nM.

`Nc1nc(O[C@H](c2ccc(Cl)cc2-n2cnc3ccccc32)C(F)(F)F)cc(N2CCC3(CC2)CN[C@H](C(=O)O)C3)n1` [Example 36b, (S)-8-(6-((R)-1-(2-(1H-benzo[d]imidazol-1-yl)-4-chlorophenyl)-2,2,2-trifluoroethoxy)-2-aminopyrimidin-4-yl)-2,8-diazaspiro[4.5]decane-3-carboxylic acid]: the IC50 under setting [2] was 50 to 300 nM.

As for `Nc1nc(O[C@H](c2ccc(Cl)cc2-n2ncc3ccccc32)C(F)(F)F)cc(N2CCC3(CC2)CN[C@H](C(=O)O)C3)n1` [Example 36c, (S)-8-(2-amino-6-((R)-1-(4-chloro-2-(1H-indazol-1-yl)phenyl)-2,2,2-trifluoroethoxy)pyrimidin-4-yl)-2,8-diazaspiro[4.5]decane-3-carboxylic acid], under setting [2], the IC50 was under 50 nM.

On to `Nc1nc(O[C@H](c2ccc(Br)cc2N2CCNCC2)C(F)(F)F)cc(N2CCC3(CC2)CN[C@H](C(=O)O)C3)n1` [Example 36d, (S)-8-(2-amino-6-((R)-1-(4-bromo-2-(piperazin-1-yl)phenyl)-2,2,2-trifluoroethoxy)pyrimidin-4-yl)-2,8-diazaspiro[4.5]decane-3-carboxylic acid], for which the IC50 under setting [2] fell in the range of 3000 to 10000 nM.

For `CC(C)Oc1ccc(-c2ccc([C@@H](Oc3cc(N4CCC5(CC4)CN[C@H](C(=O)O)C5)nc(N)n3)C(F)(F)F)c(N3CCNCC3)c2)cc1` [Example 36e, (S)-8-(2-amino-6-((R)-2,2,2-trifluoro-1-(4′-isopropoxy-3-(piperazin-1-yl)-[1,1′-biphenyl]-4-yl)ethoxy)pyrimidin-4-yl)-2,8-diazaspiro[4.5]decane-3-carboxylic acid], the IC50 under setting [2] lay in the range of 300 to 3000 nM.

For the compound `CC(C)Oc1ccc(-c2ccc([C@@H](Oc3cc(N4CCC5(CC4)CN[C@H](C(=O)O)C5)nc(N)n3)C(F)(F)F)c(N3CCOCC3)c2)cc1` [Example 36f, (S)-8-(2-amino-6-((R)-2,2,2-trifluoro-1-(4′-isopropoxy-3-morpholino-[1,1′-biphenyl]-4-yl)ethoxy)pyrimidin-4-yl)-2,8-diazaspiro[4.5]decane-3-carboxylic acid], the IC50 under setting [2] lay within 50 to 300 nM.

For the compound `Nc1nc(O[C@H](c2ccccc2-c2ccccc2)C(F)(F)F)cc(N2CCC3(CC2)CN[C@H](C(=O)O)C3)n1` [Example 36g, (S)-8-(6-((R)-1-([1,1′-biphenyl]-2-yl)-2,2,2-trifluoroethoxy)-2-aminopyrimidin-4-yl)-2,8-diazaspiro[4.5]decane-3-carboxylic acid], the IC50 under setting [2] is under 50 nM.

`CC(Oc1cc(N2CCC3(CC2)CN[C@H](C(=O)O)C3)nc(N)n1)C1C2CC3CC(C2)CC1C3` (stereo partly drawn) [Example 37, (3S)-8-(6-(1-((1r,3r,5S,7S)-adamantan-2-yl)ethoxy)-2-aminopyrimidin-4-yl)-2,8-diazaspiro[4.5]decane-3-carboxylic acid]: the IC50 under setting [2] is 3000 to 10000 nM.

As for `Nc1nc(OCC2C3CC4CC(C3)CC2C4)cc(N2CCC3(CC2)CN[C@H](C(=O)O)C3)n1` (stereo partly drawn) [Example 38, (S)-8-(6-((1r,3r,5S,7S)-adamantan-2-ylmethoxy)-2-aminopyrimidin-4-yl)-2,8-diazaspiro[4.5]decane-3-carboxylic acid], the IC50 under setting [2] lay in the range of 300 to 3000 nM.

For `Nc1nc(NCc2ccc3ccccc3c2)nc(N2CCC3(CC2)CNC(C(=O)O)C3)n1` (stereo not drawn) [Example 39a, 8-(4-Amino-6-((naphthalen-2-ylmethyl)amino)-1,3,5-triazin-2-yl)-2,8-diazaspiro[4.5]decane-3-carboxylic acid], under setting [2], the IC50 was in the range of 300 to 3000 nM.

As for `Nc1nc(NCc2ccc(-c3ccccc3)cc2)nc(N2CCC3(CC2)CNC(C(=O)O)C3)n1` (stereo not drawn) [Example 39b, 8-(4-(([1,1′-biphenyl]-4-ylmethyl)amino)-6-amino-1,3,5-triazin-2-yl)-2,8-diazaspiro[4.5]decane-3-carboxylic acid], under setting [2], the IC50 was 3000 to 10000 nM.

For `Nc1nc(NCc2ccccc2N2CCCCC2)nc(N2CCC3(CC2)CNC(C(=O)O)C3)n1` (stereo not drawn) [Example 39c, 8-(4-amino-6-((2-(piperidin-1-yl)benzyl)amino)-1,3,5-triazin-2-yl)-2,8-diazaspiro[4.5]decane-3-carboxylic acid], the IC50 under setting [2] fell in the range of 3000 to 10000 nM.

Regarding `Nc1nc(NCc2cccc(-c3ccccc3)c2)nc(N2CCC3(CC2)CNC(C(=O)O)C3)n1` (stereo not drawn) [Example 39d, 8-(4-(([1,1′-biphenyl]-3-ylmethyl)amino)-6-amino-1,3,5-triazin-2-yl)-2,8-diazaspiro[4.5]decane-3-carboxylic acid], the IC50 under setting [2] lay within 3000 to 10000 nM.

As for `C[C@@H](Nc1nc(N)nc(N2CCC3(CC2)CNC(C(=O)O)C3)n1)c1ccc2ccccc2c1` (stereo partly drawn) [Example 39e, 8-(4-amino-6-(((R)-1-(naphthalen-2-yl)ethyl)amino)-1,3,5-triazin-2-yl)-2,8-diazaspiro[4.5]decane-3-carboxylic acid], the IC50 under setting [2] is 300 to 3000 nM.

In the case of `Cc1ccn(-c2cc(Cl)ccc2[C@@H](Oc2nc(N)nc(N3CCC4(CC3)CNC(C(=O)O)C4)n2)C(F)(F)F)n1` (stereo partly drawn) [Example 40, 8-(4-amino-6-((R)-1-(4-chloro-2-(3-methyl-H-pyrazol-1-yl)phenyl)-2,2,2-trifluoroethoxy)-1,3,5-triazin-2-yl)-2,8-diazaspiro[4.5]decane-3-carboxylic acid], the IC50 under setting [2] fell in the range of 300 to 3000 nM.
